± gives the expanded uncertainty stated by the source.
What was measured:
[1] = 298.15 K; 101.33 kPa; Liquid; Vibrating tube method
[2] = excess molar enthalpy (molar enthalpy of mixing); xn = mol fraction of the nth substance listed; details: 298.15 K, 101.3 kPa, Liquid, Flow calorimetry

Structure (SMILES): CCC(C)CC [3-methylpentane]
- mass density [1]: 659.94 ± 0.4 kg/m3

Structure (SMILES): CCC(C)CC [3-methylpentane] + CC(C)OC(C)C
- excess molar enthalpy ([2]; x2 = 0.05): 0.0101 ± 0.000263 kcal/mol
- excess molar enthalpy ([2]; x2 = 0.1): 0.0188 ± 0.000335 kcal/mol
- excess molar enthalpy ([2]; x2 = 0.1499): 0.0262 ± 0.000382 kcal/mol
- excess molar enthalpy ([2]; x2 = 0.2): 0.0325 ± 0.00043 kcal/mol
- excess molar enthalpy ([2]; x2 = 0.2503): 0.0372 ± 0.000478 kcal/mol
- excess molar enthalpy ([2]; x2 = 0.2998): 0.041 ± 0.000502 kcal/mol
- excess molar enthalpy ([2]; x2 = 0.3501): 0.0439 ± 0.000526 kcal/mol
- excess molar enthalpy ([2]; x2 = 0.3997): 0.046 ± 0.00055 kcal/mol
- excess molar enthalpy ([2]; x2 = 0.45): 0.0472 ± 0.00055 kcal/mol
- excess molar enthalpy ([2]; x2 = 0.5003): 0.0472 ± 0.00055 kcal/mol
- excess molar enthalpy ([2]; x2 = 0.5502): 0.0463 ± 0.00055 kcal/mol
- excess molar enthalpy ([2]; x2 = 0.5998): 0.0448 ± 0.000526 kcal/mol
- excess molar enthalpy ([2]; x2 = 0.65): 0.0422 ± 0.000526 kcal/mol
- excess molar enthalpy ([2]; x2 = 0.7002): 0.0387 ± 0.000478 kcal/mol
- excess molar enthalpy ([2]; x2 = 0.7501): 0.0343 ± 0.000454 kcal/mol
- excess molar enthalpy ([2]; x2 = 0.8003): 0.029 ± 0.000406 kcal/mol
- excess molar enthalpy ([2]; x2 = 0.85): 0.0224 ± 0.000359 kcal/mol
- excess molar enthalpy ([2]; x2 = 0.9): 0.0158 ± 0.000311 kcal/mol
- excess molar enthalpy ([2]; x2 = 0.95): 0.00855 ± 0.000263 kcal/mol

Structure (SMILES): CCCCCCCCCC [decane]
- mass density [1]: 726.3 ± 0.41 kg/m3

Structure (SMILES): CC(C)OC(C)C [diisopropyl ether]
- mass density [1]: 718.7 ± 0.41 kg/m3

Structure (SMILES): CCCCCCCC [octane]
- mass density [1]: 698.72 ± 0.4 kg/m3

— the NIST ThermoML archive (doi:10.1021/je030161t)
